Measured values reported in patent publication US10947252B2, “Inhibitors of KEAP1-Nrf2 protein-protein interaction” (Janssen Pharmaceutica NV, priority 2018, dated 2021).
pEC50, pKd: −log10 of the molar value.

Tests used:
[1] = biological target: Kelch domain of human KEAP1 (321-624 aa) (Homo sapiens (Human), UniProt Q14145); test: KEAP1 KELCH ThermoFluor binding assay; settings: KEAP Kelch […], 1,8-ANS, pH 7.0, average of results obtained, read-out: Tf Kd;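 note: Ligand-induced melting temperature shift of E. coli-expressed KEAP1 Kelch protein, Kd estimated from concentration-response curves of ΔTm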
Chain of Kelch domain of human KEAP1 (321-624 aa) (Q14145 321-624): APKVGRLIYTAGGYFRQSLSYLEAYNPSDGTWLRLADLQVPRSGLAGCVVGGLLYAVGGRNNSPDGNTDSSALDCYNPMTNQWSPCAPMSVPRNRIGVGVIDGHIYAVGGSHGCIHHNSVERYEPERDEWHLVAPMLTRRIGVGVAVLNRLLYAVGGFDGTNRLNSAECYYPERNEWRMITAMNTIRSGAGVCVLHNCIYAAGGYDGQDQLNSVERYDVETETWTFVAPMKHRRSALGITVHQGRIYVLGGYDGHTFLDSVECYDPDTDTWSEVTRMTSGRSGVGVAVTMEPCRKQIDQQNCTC

[2] = tested on: Glo-Response ARE-luc2P HEK293 cell line; test: ARE luciferase reporter cell-based assay; settings: average of results obtained;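 note: luciferase signal tracks Nrf2 activation of the ARE once compounds disrupt KEAP1-Nrf2 binding, read with One-Glo reagent, DMSO serving as low control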

Compound | pKd [1] | pEC50 ([2]; Homo sapiens, HEK293, 24 h) | pEC50 ([2]; 24 hours)
CCn1nnc2c(C)c([C@@H](c3cnc(C)c(CN4CC5(CCOCC5)Oc5ncccc5S4(=O)=O)c3)C(C)(C)C(=O)O)ccc21 (single isomer, unassigned) [Example 59, (*S)-3-(5-((1′,1′-Dioxido-2,3,5,6-tetrahydrospiro[pyran-4,4′-pyrido[2,3-b][1,4,5]oxathiazepin]-2′(3′H)-yl)methyl)-6-methylpyridin-3-yl)-3-(1-ethyl-4-methyl-1H-benzo[d][1,2,3]triazol-5-yl)-2,2-dimethylpropanoic Acid] | 8.92 | 6.94 | –
CCn1nnc2c(C)c([C@H](c3cnc(C)c(CN4CC5(CCOCC5)Oc5ncccc5S4(=O)=O)c3)C(C)(C)C(=O)O)ccc21 (single isomer, unassigned) [Example 60, (*R)-3-(5-((1′,1′-Dioxido-2,3,5,6-tetrahydrospiro[pyran-4,4′-pyrido[2,3-b][1,4,5]oxathiazepin]-2′(3′H)-yl)methyl)-6-methylpyridin-3-yl)-3-(1-ethyl-4-methyl-1H-benzo[d][1,2,3]triazol-5-yl)-2,2-dimethylpropanoic Acid] | 4.39 | 4.91 | –
CCn1nnc2c(C)c([C@@H](c3cnc(C)c(CN4CC5(CCOCC5)Oc5ncc(C)cc5S4(=O)=O)c3)C(C)(C)C(=O)O)ccc21 (single isomer, unassigned) [Example 62, (*S)-3-(1-Ethyl-4-methyl-1H-benzo[d][1,2,3]triazol-5-yl)-2,2-dimethyl-3-(6-methyl-5-((8′-methyl-1′,1′-dioxido-2,3,5,6-tetrahydrospiro[pyran-4,4′-pyrido[2,3-b][1,4,5]oxathiazepin]-2′(3′H)-yl)methyl)pyridin-3-yl)propanoic Acid] | > 9.00 | 7.72 | –
CCn1nnc2c(C)c([C@H](c3cnc(C)c(CN4CC5(CCOCC5)Oc5ncc(C)cc5S4(=O)=O)c3)C(C)(C)C(=O)O)ccc21 (single isomer, unassigned) [Example 63, (*R)-3-(1-Ethyl-4-methyl-1H-benzo[d][1,2,3]triazol-5-yl)-2,2-dimethyl-3-(6-methyl-5-((8′-methyl-1′,1′-dioxido-2,3,5,6-tetrahydrospiro[pyran-4,4′-pyrido[2,3-b][1,4,5]oxathiazepin]-2′(3′H)-yl)methyl)pyridin-3-yl)propanoic Acid] | 4.84 | 5.48 | –
Cc1cnc2c(c1)S(=O)(=O)N(Cc1cc([C@@H](CC(=O)O)c3ccn4c(C(F)(F)F)nnc4c3C)ccc1C)CC1(CC1)O2 (single isomer, unassigned) [Example 64, (*R)-3-(4-methyl-3-((8′-methyl-1′,1′-dioxidospiro[cyclopropane-1,4′-pyrido[2,3-b][1,4,5]oxathiazepin]-2′(3′H)-yl)methyl)phenyl)-3-(8-methyl-3-(trifluoromethyl)-[1,2,4]triazolo[4,3-a]pyridin-7-yl)propanoic Acid] | > 9.00 | 6.52 | –
Cc1ccc([C@H](CC(=O)O)c2ccc3c(nnn3CC3CC3)c2C)cc1CN1CC2(COC2)Oc2ncccc2S1(=O)=O (single isomer, unassigned) [Example 69, (*S)-3-(1-(Cyclopropylmethyl)-4-methyl-1H-benzo[d][1,2,3]triazol-5-yl)-3-(3-((1′,1′-dioxidospiro[oxetane-3,4′-pyrido[2,3-b][1,4,5]oxathiazepin-2′(3′H)-yl)methyl)-4-methylphenyl)propanoic Acid] | 9.80 | 7.55 | –
Cc1ccc([C@@H](CC(=O)O)c2ccc3c(nnn3CC3CC3)c2C)cc1CN1CC2(COC2)Oc2ncccc2S1(=O)=O (single isomer, unassigned) [Example 70, (*R)-3-(1-(Cyclopropylmethyl)-4-methyl-1H-benzo[d][1,2,3]triazol-5-yl)-3-(3-((1′,1′-dioxidospiro[oxetane-3,4′-pyrido[2,3-b][1,4,5]oxathiazepin-2′(3′H)-yl)methyl)-4-methylphenyl)propanoic Acid] | 8.72 | 6.74 | –
Cc1ccc([C@H](CC(=O)O)c2ccc3c(nnn3C)c2C(F)F)cc1CN1CC2CCCN2c2ncccc2S1(=O)=O (single isomer, unassigned) [Example 72, (*S)-3-(4-(Difluoromethyl-1-methyl-1H-benzo[d][1,2,3]triazol-5-yl)-3-(3-(((R-5,5-dioxido-7a,8,9,10-tetrahydropyridi[2,3-f]pyrrolo[2,1-d][1,2,5]thiadiazepin-6(7H)-yl)methyl)-4-methylphenyl)propanoic Acid] | 8.27 | – | 5.71
Cc1ccc([C@H](CC(=O)O)c2ccc3c(nnn3C)c2C(F)F)cc1CN1CC2CCCN2c2ncccc2S1(=O)=O (single isomer, unassigned) [Example 73, (*R) 3-(4-(Difluoromethyl-1-methyl-1H-benzo[d][1,2,3]triazol-5-yl)-3-(3-(((R-5,5-dioxido-7a,8,9,10-tetrahydropyridi[2,3-f]pyrrolo[2,1-d][1,2,5]thiadiazepin-6(7H)-yl)methyl)-4-methylphenyl)propanoic Acid] | 8.52 | – | 6.22
Cc1ccc([C@@H](CC(=O)O)c2ccc3c(nnn3CC3CC3)c2C)cc1CN1CC2(COC2)Oc2ccccc2S1(=O)=O (single isomer, unassigned) [Example 76, (*R)-3-(1-(cyclopropylmethyl)-4-methyl-1H-benzo[d][1,2,3]triazol-5-yl)-3-(3-((1′,1′-dioxidospiro[benzo[b][1,4,5]oxathiazepin-4,3′-oxetan]-2,(3H)-yl)methyl)-4-methylphenyl)propanoic Acid] | 8.32 | 6.87 | –
Cc1ccc([C@H](CC(=O)O)c2ccc3c(nnn3CC3CC3)c2C)cc1CN1CC2(COC2)Oc2ccccc2S1(=O)=O (single isomer, unassigned) [Example 77, (*S)-3-(1-(Cyclopropylmethyl)-4-methyl-1H-benzo[d][1,2,3]triazol-5-yl)-3-(3-((1′,1′-dioxidospiro[benzo[b][1,4,5]oxathiazepin-4,3′-oxetan]-2,(3H)-yl)methyl)-4-methylphenyl)propanoic Acid] | 9.38 | 7.80 | –
Cc1ccc([C@@H](CC(=O)O)c2ccc3c(nnn3CC3CC3)c2C)cc1CN1CC2(CC2)N(C)c2ncccc2S1(=O)=O (single isomer, unassigned) [Example 79, (*R)-3-(1-(Cyclopropylmethyl)-4-methyl-1H-benzo[d][1,2,3]triazol-5-yl)-3-(4-methyl-3-((5′-methyl-1′,1′-dioxido-5′H-spiro[cyclopropane-1,4′-pyrido[2,3-f][1,2,5]thiadiazepin]-2′(3′H)-yl)methyl)phenyl)propanoic Acid] | 8.25 | 6.81 | –
Cc1ccc([C@@H](CC(=O)O)c2ccc3c(nnn3CC3CC3)c2C)cc1CN1C[C@@]2(C)CCCN2c2ncccc2S1(=O)=O (single isomer, unassigned) [Example 81, (*R)-3-(1-(Cyclopropylmethyl)-4-methyl-1H-benzo[d][1,2,3]triazol-5-yl)-3-(4-methyl-3-(((*R)-7a-methyl-5,5-dioxido-7a,8,9,10-tetrahydropyrido[2,3-f]pyrrolo[2,1-d][1,2,5]thiadiazepin-6(7H)-yl)methyl)phenyl)propanoic Acid] | 8.26 | 6.75 | –
